Legend:
crabgrass, large = assay: Test C preemergence; type: in vivo, Digitaria sanguinalis; conditions: preemergence; for Plant response rating, Crabgrass, Large: 125 g ai/ha, scale 0 to 100, 0 = no effect, 100 = complete control
Procedure, shortened: (§1)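 Scores of 0 (no effect) to 100 (complete control) were assigned by eye after 13–15 days, comparing treated pots with controls. Soil-applied (preemergence) treatments went onto seeds in loam and sand; foliar (postemergence) treatments onto 1- to 4-leaf plants in peat medium.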

morningglory = assay: Test A preemergence; type: in vivo, Ipomoea spp.; conditions: preemergence; for Morningglory plant response rating (0 to 100 scale): 125 g ai/ha, visual injury approx. 10 days after treatment; for Morningglory plant response rating: 500 g ai/ha, visual injury after approx. 10 days, 0 to 100 scale (0 no effect, 100 complete control)
Procedure, shortened: (§2)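 Scoring was visual, on a scale where 100 means complete control and 0 means no effect, comparing treated with untreated plants around 10 days post-application. Compounds in surfactant-containing non-phytotoxic solvent were sprayed onto soil preemergence or onto one- to two-leaf seedlings (2–10 cm) postemergence.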

foxtail, giant [1] = assay: Test C preemergence; type: in vivo, Setaria faberii; conditions: preemergence; for Plant response rating, Foxtail, Giant: 125 g ai/ha, scale 0 to 100, 0 = no effect, 100 = complete control
Procedure, shortened: as §1

velvetleaf [2] = assay: Test A postemergence; type: in vivo, Abutilon theophrasti; conditions: Postemergence
Procedure, shortened: as §2

ryegrass, Italian = assay: Test C preemergence; type: in vivo, Lolium multiflorum; conditions: preemergence; for Plant response rating, Ryegrass, Italian: 125 g ai/ha, scale 0 to 100, 0 = no effect, 100 = complete control
Procedure, shortened: as §1

barnyardgrass [3] = assay: Test B flood; type: in vivo, Echinochloa crus-galli; conditions: 250 g ai/ha, visual rating on 0 to 100 scale (0 no effect, 100 complete control), 13 to 15 days
Procedure, shortened: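 2-leaf plants; pots flooded 3 cm over soil; compound added to paddy water, depth kept constant. Greenhouse 13–15 d. Visual rating vs controls, 0–100 scale (100 = complete control); dash = no result.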

ragweed = assay: Test C preemergence; type: in vivo, Ambrosia elation; conditions: preemergence; for Plant response rating, Ragweed: 125 g ai/ha, scale 0 to 100, 0 = no effect, 100 = complete control
Procedure, shortened: as §1

foxtail, giant [4] = assay: Test A preemergence; type: in vivo, Setaria faberii; conditions: preemergence; for Foxtail, Giant plant response rating (0 to 100 scale): 125 g ai/ha, visual injury approx. 10 days after treatment; for Foxtail, Giant plant response rating: 500 g ai/ha, visual injury after approx. 10 days, 0 to 100 scale (0 no effect, 100 complete control)
Procedure, shortened: as §2

johnsongrass = assay: Test C preemergence; type: in vivo, Sorghum halepense; conditions: preemergence; for Plant response rating, Johnsongrass: 125 g ai/ha, scale 0 to 100, 0 = no effect, 100 = complete control
Procedure, shortened: as §1

velvetleaf [5] = assay: Test A preemergence; type: in vivo, Abutilon theophrasti; conditions: preemergence; for Velvetleaf plant response rating (0 to 100 scale): 125 g ai/ha, visual injury approx. 10 days after treatment; for Velvetleaf plant response rating: 500 g ai/ha, visual injury after approx. 10 days, 0 to 100 scale (0 no effect, 100 complete control)
Procedure, shortened: as §2

barnyardgrass [6] = assay: Test C preemergence; type: in vivo, Echinochloa crus-galli; conditions: preemergence; for Plant response rating, Barnyardgrass: 125 g ai/ha, scale 0 to 100, 0 = no effect, 100 = complete control
Procedure, shortened: as §1

oilseed rape = assay: Test C preemergence; type: in vivo, Brassica napus; conditions: preemergence; for Plant response rating, Oilseed Rape: 125 g ai/ha, scale 0 to 100, 0 = no effect, 100 = complete control
Procedure, shortened: as §1

barnyardgrass [7] = assay: Test A preemergence; type: in vivo, Echinochloa crus-galli; conditions: preemergence; for Barnyardgrass plant response rating (0 to 100 scale, 0 is no effect, 100 is complete control): 125 g ai/ha, visual injury approx. 10 days after treatment; for Barnyardgrass plant response rating: 500 g ai/ha, visual injury after approx. 10 days, 0 to 100 scale (0 no effect, 100 complete control)
Procedure, shortened: as §2

corn = assay: Test C preemergence; type: in vivo, Zea mays; conditions: preemergence; for Plant response rating, Corn: 125 g ai/ha, scale 0 to 100, 0 = no effect, 100 = complete control
Procedure, shortened: as §1

[8] = 31 g ai/ha, visual rating, scale 0 to 100 (0 no effect, 100 complete control), 13 to 15 days
[9] = 62 g ai/ha, scale 0 to 100 (0 no effect, 100 complete control), 13 to 15 days
[10] = 250 g ai/ha, scale 0 to 100, 0 is no effect, 100 is complete control
[11] = 125 g ai/ha, 0 to 100 scale, 0 no effect, 100 complete control
[12] = 500 g ai/ha, 0 to 100 scale (0 no effect, 100 complete control)

For `CCCNC(=O)c1cc(CCC)n(Cc2cc(C(F)(F)F)nn2C)n1` [Compound 198], the “Crabgrass, Large plant response rating” value (crabgrass, large; [8]) was 98, the “Crabgrass, Large plant response rating” value (crabgrass, large; [9]) was 100 and the “Plant response rating, Crabgrass, Large” value (crabgrass, large; 13 to 15 days) was 100. For the same compound, the “Crabgrass, Large plant response rating” value (crabgrass, large; [10]) was 100, the “Morningglory plant response rating (0 to 100 scale)” value (morningglory) was 100 and the “Morningglory plant response rating” value (morningglory) was 100. The “Foxtail, Giant plant response rating” value (foxtail, giant [1]; [8]) was 98, the “Foxtail, Giant plant response rating” value (foxtail, giant [1]; [9]) was 100 and the “Plant response rating, Foxtail, Giant” value (foxtail, giant [1]; 13 to 15 days) was 100. For the same compound, the “Foxtail, Giant plant response rating” value (foxtail, giant [1]; [10]) was 100, the “Velvetleaf plant response rating” value (velvetleaf [2]; [11]) was 30 and the “Velvetleaf plant response rating” value (velvetleaf [2]; [12]) was 100. The “Ryegrass, Italian plant response rating” value (ryegrass, Italian; [8]) was 25, the “Ryegrass, Italian plant response rating” value (ryegrass, Italian; [9]) was 70 and the “Plant response rating, Ryegrass, Italian” value (ryegrass, Italian; 13 to 15 days) was 90. For the same compound, the “Ryegrass, Italian plant response rating” value (ryegrass, Italian; [10]) was 90, the “Plant response rating, Barnyardgrass” value (barnyardgrass [3]) was 60 and the “Ragweed plant response rating” value (ragweed; [8]) was 60. For the same compound, the “Ragweed plant response rating” value (ragweed; [9]) was 85, the “Plant response rating, Ragweed” value (ragweed; 13 to 15 days) was 98 and the “Ragweed plant response rating” value (ragweed; [10]) was 100. For the same compound, the “Foxtail, Giant plant response rating (0 to 100 scale)” value (foxtail, giant [4]) was 100, the “Foxtail, Giant plant response rating” value (foxtail, giant [4]) was 90 and the “Johnsongrass plant response rating” value (johnsongrass; [8]) was 25. For the same compound, the “Johnsongrass plant response rating” value (johnsongrass; [9]) was 80, the “Plant response rating, Johnsongrass” value (johnsongrass; 13 to 15 days) was 100 and the “Johnsongrass plant response rating” value (johnsongrass; [10]) was 100. The “Velvetleaf plant response rating (0 to 100 scale)” value (velvetleaf [5]) was 30, the “Velvetleaf plant response rating” value (velvetleaf [5]) was 100 and the “Barnyardgrass plant response rating” value (barnyardgrass [6]; [8]) was 100. For the same compound, the “Barnyardgrass plant response rating” value (barnyardgrass [6]; [9]) was 100, the “Plant response rating, Barnyardgrass” value (barnyardgrass [6]; 13 to 15 days) was 100 and the “Barnyardgrass plant response rating” value (barnyardgrass [6]; [10]) was 100. The “Oilseed Rape plant response rating” value (oilseed rape; [8]) was 95, the “Oilseed Rape plant response rating” value (oilseed rape; [9]) was 100 and the “Plant response rating, Oilseed Rape” value (oilseed rape; 13 to 15 days) was 100. The “Oilseed Rape plant response rating” value (oilseed rape; [10]) was 100, the “Barnyardgrass plant response rating (0 to 100 scale, 0 is no effect, 100 is complete control)” value (barnyardgrass [7]) was 100 and the “Barnyardgrass plant response rating” value (barnyardgrass [7]) was 100. For the same compound, the “Corn plant response rating” value (corn; [8]) was 5, the “Corn plant response rating” value (corn; [9]) was 55 and the “Plant response rating, Corn” value (corn; 13 to 15 days) was 85. The “Corn plant response rating” value (corn; [10]) was 98.
In the case of `CCc1cc(C(=O)NCC2CC2)nn1Cc1ccnc(C(F)(F)F)c1` [Compound 199], the “Crabgrass, Large plant response rating” value (crabgrass, large; [8]) is reported as 98, the “Crabgrass, Large plant response rating” value (crabgrass, large; [9]) is reported as 100 and the “Plant response rating, Crabgrass, Large” value (crabgrass, large; 13 to 15 days) is reported as 100. For the same compound, the “Crabgrass, Large plant response rating” value (crabgrass, large; [10]) was 100, the “Morningglory plant response rating (0 to 100 scale)” value (morningglory) was 90 and the “Morningglory plant response rating” value (morningglory) was 100. The “Foxtail, Giant plant response rating” value (foxtail, giant [1]; [8]) was 100, the “Foxtail, Giant plant response rating” value (foxtail, giant [1]; [9]) was 100 and the “Plant response rating, Foxtail, Giant” value (foxtail, giant [1]; 13 to 15 days) was 100. For the same compound, the “Foxtail, Giant plant response rating” value (foxtail, giant [1]; [10]) was 100, the “Velvetleaf plant response rating” value (velvetleaf [2]; [11]) was 80 and the “Velvetleaf plant response rating” value (velvetleaf [2]; [12]) was 90. For the same compound, the “Ryegrass, Italian plant response rating” value (ryegrass, Italian; [8]) was 40, the “Ryegrass, Italian plant response rating” value (ryegrass, Italian; [9]) was 85 and the “Plant response rating, Ryegrass, Italian” value (ryegrass, Italian; 13 to 15 days) was 90. For the same compound, the “Ryegrass, Italian plant response rating” value (ryegrass, Italian; [10]) was 90, the “Plant response rating, Barnyardgrass” value (barnyardgrass [3]) was 55 and the “Ragweed plant response rating” value (ragweed; [8]) was 30. For the same compound, the “Ragweed plant response rating” value (ragweed; [9]) was 85, the “Plant response rating, Ragweed” value (ragweed; 13 to 15 days) was 95 and the “Ragweed plant response rating” value (ragweed; [10]) was 95. For the same compound, the “Foxtail, Giant plant response rating (0 to 100 scale)” value (foxtail, giant [4]) was 100, the “Foxtail, Giant plant response rating” value (foxtail, giant [4]) was 100 and the “Johnsongrass plant response rating” value (johnsongrass; [8]) was 45. For the same compound, the “Johnsongrass plant response rating” value (johnsongrass; [9]) was 70, the “Plant response rating, Johnsongrass” value (johnsongrass; 13 to 15 days) was 98 and the “Johnsongrass plant response rating” value (johnsongrass; [10]) was 100. For the same compound, the “Velvetleaf plant response rating (0 to 100 scale)” value (velvetleaf [5]) was 100, the “Velvetleaf plant response rating” value (velvetleaf [5]) was 100 and the “Barnyardgrass plant response rating” value (barnyardgrass [6]; [8]) was 95. For the same compound, the “Barnyardgrass plant response rating” value (barnyardgrass [6]; [9]) was 100, the “Plant response rating, Barnyardgrass” value (barnyardgrass [6]; 13 to 15 days) was 100 and the “Barnyardgrass plant response rating” value (barnyardgrass [6]; [10]) was 100. The “Oilseed Rape plant response rating” value (oilseed rape; [8]) was 80, the “Oilseed Rape plant response rating” value (oilseed rape; [9]) was 95 and the “Plant response rating, Oilseed Rape” value (oilseed rape; 13 to 15 days) was 100. The “Oilseed Rape plant response rating” value (oilseed rape; [10]) was 100, the “Barnyardgrass plant response rating (0 to 100 scale, 0 is no effect, 100 is complete control)” value (barnyardgrass [7]) was 100 and the “Barnyardgrass plant response rating” value (barnyardgrass [7]) was 100. For the same compound, the “Corn plant response rating” value (corn; [8]) was 20, the “Corn plant response rating” value (corn; [9]) was 65 and the “Plant response rating, Corn” value (corn; 13 to 15 days) was 75. For the same compound, the “Corn plant response rating” value (corn; [10]) was 90.
